Assay results published in US12357553B2, “Composition for treating hair loss or promoting hair growth, comprising piperonylic acid” (HESED BIO CO., LTD., priority 2017, dated 2025).

What was measured:
ERK = ERK activation (phosphorylation) in HaCaT cells, Western blotting; type: cell-based
Protocol: (§1) It is well known that the activation of extracellular signal-regulated kinase (ERK) and protein kinase B (AKT) are induced by the EGFR activation and transmit signals required for cell growth and survival. Accordingly, as the activation of EGFR by piperonylic acid was verified in Examples 2 and 3, it was determined whether ERK and AKT, the downstream of EGFR, were also activated by piperonylic acid. Specifically, after HaCaT cells were cultured in a serum-free medium, the cells were treated with piperonylic acid at 0, 25, and 100 μM, and then ERK and AKT, which were activated when phsphorylated, were analyzed by Western blotting method. As antibodies, phosphor-site specific antibodies which are labeling factors of activated ERK and AKT and antibodies that measure total ERK and AKT were used, and GAPDH expressed from a housekeeping gene was measured in order to correct the amount of total proteins between lanes.
(§2) Subsequently, in order to confirm the pattern of ERK and AKT activities by piperonylic acid treatment over time, HaCaT cells cultured in a serum-free medium were treated with piperonylic acid, and then the activity pattern over time was analyzed.
(§3) In order to verify that the activation of ERK and AKT by piperonylic acid were induced by EGFR, the activity of EGFR was suppressed by treating cells with tyrphostin AG1478 which is an EGFR antagonist, and then the activities of ERK and AKT by piperonylic acid were analyzed.

[1] = system: c-myc, c-jun, c-fos, and egr-1 genes; test: Change in gene expression in HaCaT cells (real-time quantitative PCR, Western blotting); type: cell-based
From the text: Signaling by EGFR induces gene expression that is important for cell growth and survival via important signaling mediator proteins which are ERK and AKT. It is well known that c-myc, c-jun, c-fos, and egr-1 genes are genes which are regulated by EGFR and promote cell growth and survival. […] Specifically, a Tri-reagent was used for mRNA extraction, cDNA was made by a reverse transcription polymerase chain reaction (RT-PCR) using a poly-A primer and a reverse transcriptase, and the amount of each mRNA was measured using real-time quantitative PCR. The amount of each mRNA was corrected with the amount of β-actin which is a housekeeping gene.

AKT = AKT activation (phosphorylation) in HaCaT cells, Western blotting; type: cell-based
Protocol: as §1, §2, §3

EGFR [2] = molecular target: T1, EGFR (Homo sapiens, UniProt P00533); test: EGFP-SH2 biosensor system measuring EGFR activation (internalization) in A549 cells; type: cell-based; details: 100 μM, compared to DMSO control
Protocol: Using these characteristics, a biosensor system was manufactured such that EGFR internalization by the EGFR activation could be measured by a fluorescent protein. Specifically, an EGFP-SH2 vector was manufactured by removing only the SH2 domain of Grb2 and inserted it in an enhanced green fluorescent protein (EGFP) vector using recombinant DNA technology, and then introduced it into A549 cells for expression.
After being cultured in a serum-free medium for 24 hours, the cells were treated with piperonylic acid.

cyclin D = test: Cyclin D protein level in dermal papilla cells, western blotting; type: cell-based, human; details: 25 and 50 μM, 24 hours, compared to the control
Protocol: In addition, in order to investigate a gene expression pattern involved in the proliferation of dermal papilla cells related to androgenic alopecia, the human dermal papilla cells were cultured in a serum-free medium for 24 hours, and then treated with 25 and 50 μM piperonylic acid, respectively. The cells were treated with a drug, and after 24 hours, the levels of cyclin D were analyzed by the western blotting method. As an antibody, GAPDH, which is always expressed constantly, was used to correct the total protein amount between the cyclin D antibody and each lane. A solvent DMSO was used as a negative control.

HaCaT cells [3] = test: Cytotoxicity by MTT in HaCaT keratinocytes; type: cell-based
Protocol: The cytotoxicity of piperonylic acid was measured using HaCaT cells which are keratinocytes. When cells are treated with a yellow water-soluble substrate MTT tetrazolium, the substrate is reduced to MTT formazan by mitochondrial enzymes and the color changes to blue-violet. Since the more living cells there are, the darker the blue-violet color appears, the blue-violet absorbance at 540 nm reflects the concentration of living cells. Specifically, after cells were cultured fully in each well of a 96-well plate, cells were treated with piperonylic acid at a concentration of 0, 25, 50, 100, 250, and 500 μM and cultured at 37° C. in a 5% CO2 incubator for 24 hours and 48 hours, and then the viability of cells was measured by an MTT reagent. A control (0 μM) that had not been treated with piperonylic acid was treated with an equal amount of solvent, DMSO.

[4] = system: dermal papilla cells related to androgenic alopecia; test: Proliferation of dermal papilla cells related to androgenic alopecia by MTT; type: cell-based, human; details: 50 μM, 24 hours, serum-free, vs DMSO
From the text: The dermal papilla cells related to androgenic alopecia used in the experiment were a cell line that was immortalized by inserting hTERT and SV40-Tag into dermal papilla cells (DPCs, passage 1) derived from male androgenic alopecia patients, and purchased from Epibiotech Co., Ltd. and used. The proliferation of dermal papilla cells was confirmed using MTT tetrazolium. MTT tetrazolium is reduced to MTT formazan by intracellular mitochondrial enzymes, and at this time, the yellow color turns blue violet. The more cells there are, the stronger the reduction, so a stronger blue violet color appears, and the concentration of living cells is measured by measuring the absorbance of the blue violet color at 540 nm. Specifically, 1×10^4 cells are aliquoted into 96-well cell culture plates and cultured for 24 hours. Thereafter, a serum-free medium was treated with 50 μM piperonylic acid, and then cultured for 24 hours. Then, after the cells were treated with the MTT reagent for 2 hours, cell growth was analyzed by adding DMSO thereto and confirming the color development at […]. A solvent DMSO was used as a negative control.

HaCaT cells [5] = test: Wound healing assay in keratinocytes; type: cell-based; details: 50 μM and 100 μM, culturing for 3 days, vs negative control
Protocol: Further, the cell growth promotion efficacy by piperonylic acid was confirmed through a wound healing assay. Specifically, after HaCaT cells were cultured fully on a 12-well plate, a wound area was formed using a yellow tip, and the cells were treated with piperonylic acid at 50 μM and 100 μM after exchanging the medium with a serum-free medium.

EGFR [6] = molecular target: T1, EGFR; test: Tyrosine phosphorylation of EGFR in HaCaT cells (immunoprecipitation, Western blotting); type: cell-based; parameters: endogenous in cells; host or cells: HaCaT cells; details: 100 μM for 10 minutes, compared to DMSO
Protocol: In order to confirm whether the binding of piperonylic acid with EGFR directly induces the EGFR activation, HaCaT cells cultured in a serum-free medium were treated with piperonylic acid at a concentration of 100 μM for 10 minutes, and then the activation was measured through an increasing tyrosine phosphorylation of EGFR. Specifically, after only EGFR was precipitated from 500 μg of cell lysate by immunoprecipitation using anti-EGFR antibody and protein-G agarose beads, the level of tyrosine phosphorylation was analyzed by Western blotting method.

EGFR [7] = molecular target: T1, EGFR; test: Pull-down of EGFR from HaCaT cell lysate with piperonylic acid-conjugated Sepharose 4B bead, Western blotting; type: binding; parameters: endogenous in cells; host or cells: HaCaT cells; details: 100 μM of free piperonylic acid added with the cell lysate
Protocol: In order to investigate the mechanism of EGFR activation by piperonylic acid confirmed in Example 2, it was confirmed in the present example whether piperonylic acid could interact with EGFR. For this purpose, piperonylic acid-4B bead was manufactured by conjugating piperonylic acid to a Cyanogen bromide-activated-Sepharose 4B bead purchased from Sigma-Aldrich. Equal amounts of HaCaT cell lysates were incubated with piperonylic acid-4B bead and control-4B used as the control, and proteins bound to the bead were analyzed by the Western blotting method. An anti-EGFR antibody was used in order to measure EGFR among the precipitated proteins, and anti-Actin and anti-GAPDH antibodies against actin and GAPDH proteins present in large amounts as housekeeping genes were used in order to support that the binding to piperonylic acid was selective.

HaCaT cells [8] = test: Resistance to UVB-induced cell damage, cell viability by CCK-8; type: cell-based; details: UVB at 25 mJ/cm^2, 100 μM; negative control 84%
Protocol: Among the ultraviolet wavelengths, the UVB wavelength corresponding to 280 to 315 nm penetrates the epidermal layer where many keratinocytes are present to cause cell damage. […] The solvent DMSO was used as a negative control, and cell viability was measured using the CCK-8 method used in Example 7.

HaCaT cells [9] = test: Growth promotion of keratinocytes by CCK-8 assay; type: cell-based; details: 50 μM and 100 μM, 24 hours, serum-free, compared to the negative control
Protocol: Cell counting kit-8 (CCK-8) is a water-soluble tetrazolium salt reagent called WST-8, and forms orange water-soluble formazan by a dehydrogenase in the mitochondria of living cells. The absorbance of the orange wavelength at 450 nm as indicated by CCK-8 reflects the number of cells, and thus has been used to measure cell growth and proliferation. The growth promotion efficacy of keratinocytes, HaCaT cells, was measured by CCK-8 assay using non-cytotoxic piperonylic acid at a concentration of 50 μM and 100 μM. Specifically, after 1×10^4 HaCaT cells were cultured on a 96-well plate for 24 hours, growth factors in the medium were removed by exchanging the medium with a serum-free medium, and then the cells were treated with piperonylic acid. […] After the cells were cultured for 24 hours, the cell growth was analyzed by treating the cells with CCK8 and measuring the absorbance at 450 nm.

[10] = system: dermal papilla cells related to androgenic alopecia; test: Scratch (yellow tip) proliferation assay in dermal papilla cells related to androgenic alopecia; type: cell-based, human; details: 100 μM, 24 hours and 48 hours, serum-free, vs DMSO
From the text: Meanwhile, in order to investigate the proliferation pattern of dermal papilla cells related to androgenic alopecia during treatment with piperonylic acid, a 12-well cell culture plate was fully filled with the dermal papilla cells, and the cells were injured using a yellow tip. […] A solvent DMSO was used as a negative control.

[11] = AG1478 at 200 nM for 10 minutes, then piperonylic acid
[12] = 100 μM, 10 minutes, compared to the control
[13] = piperonylic acid treatment, serum-free medium

T1 sequence (P00533 25-1210): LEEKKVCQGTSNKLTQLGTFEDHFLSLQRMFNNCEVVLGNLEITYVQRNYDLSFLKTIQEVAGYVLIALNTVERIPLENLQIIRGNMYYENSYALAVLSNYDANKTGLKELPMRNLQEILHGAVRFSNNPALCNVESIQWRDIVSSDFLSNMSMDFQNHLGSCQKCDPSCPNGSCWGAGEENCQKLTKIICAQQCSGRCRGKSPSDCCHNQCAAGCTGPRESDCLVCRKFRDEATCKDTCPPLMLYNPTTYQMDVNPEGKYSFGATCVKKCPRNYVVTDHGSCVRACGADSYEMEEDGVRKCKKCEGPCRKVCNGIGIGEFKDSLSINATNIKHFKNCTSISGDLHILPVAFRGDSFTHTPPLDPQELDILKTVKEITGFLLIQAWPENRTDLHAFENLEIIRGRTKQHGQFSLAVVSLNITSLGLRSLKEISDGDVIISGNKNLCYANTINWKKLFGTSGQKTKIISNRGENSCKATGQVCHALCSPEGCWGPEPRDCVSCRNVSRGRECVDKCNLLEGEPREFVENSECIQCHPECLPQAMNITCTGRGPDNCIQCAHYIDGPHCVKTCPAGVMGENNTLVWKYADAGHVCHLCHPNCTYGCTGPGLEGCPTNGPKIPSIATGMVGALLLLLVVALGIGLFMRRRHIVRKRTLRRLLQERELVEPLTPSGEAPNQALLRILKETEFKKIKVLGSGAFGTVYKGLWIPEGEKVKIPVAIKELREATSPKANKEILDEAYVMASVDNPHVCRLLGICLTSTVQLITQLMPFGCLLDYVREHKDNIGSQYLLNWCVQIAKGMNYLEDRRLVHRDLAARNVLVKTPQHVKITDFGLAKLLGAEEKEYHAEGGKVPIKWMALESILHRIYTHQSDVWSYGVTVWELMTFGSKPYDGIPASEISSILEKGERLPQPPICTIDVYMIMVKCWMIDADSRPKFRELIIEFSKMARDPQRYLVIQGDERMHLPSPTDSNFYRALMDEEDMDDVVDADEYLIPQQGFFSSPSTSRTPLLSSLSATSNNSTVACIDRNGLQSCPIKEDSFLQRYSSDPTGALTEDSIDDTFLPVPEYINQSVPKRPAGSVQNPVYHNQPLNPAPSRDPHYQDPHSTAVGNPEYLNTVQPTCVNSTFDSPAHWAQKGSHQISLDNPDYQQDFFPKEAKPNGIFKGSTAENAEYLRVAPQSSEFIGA

## COc1cc2ncnc(Nc3cccc(Cl)c3)c2cc1OC [AG1478, tyrphostin AG1478, reference compound]
ERK; [11]
  ERK activation by piperonylic acid after EGFR antagonist: not activated
[1]; AG1478 pre-treatment, piperonylic acid at 100 μM, 2 hours
  gene expression of c-fos and egr-1 increased by piperonylic acid: completely suppressed
AKT; [11]
  AKT activation by piperonylic acid after EGFR antagonist: not activated

## O=C(O)c1ccc2c(c1)OCO2 [piperonylic acid]
EGFR [2]
  EGFR activation in biosensor system (change in fluorescence signal): EGFR was activated
Cyclin D
  expression of cyclin D protein: significantly increased
HaCaT cells [3]; 0-500 μM, 24 and 48 hours
  cytotoxicity to keratinocytes: very low
HaCaT cells [3]; 500 μM for 48 hours
  difference in cell viability from control: about 10%
[4]
  cell proliferation of dermal papilla cells (MTT): promoted cell proliferation
ERK; [12]
  ERK activation: 3.3 fold
ERK; [13]
  pattern of ERK activity over time: rapidly induced for 5 to 10 minutes
HaCaT cells [5]
  filling of wound area: more rapidly filled
EGFR [6]
  tyrosine phosphorylation of EGFR: 1.8 fold
EGFR [7]
  amount of EGFR bound to bead under competition: the amount of EGFR bound thereto was reduced
[1]; 100 μM
  expression of Egr-1 and c-Fos proteins: increase in expression
[1]; 100 μM, 0, 1, 2, and 6 hours
  mRNA expression of c-jun: increasing tendency
HaCaT cells [8]
  cells survived after UVB: 89%
HaCaT cells [9]
  cell growth and proliferation (CCK-8): significantly increased
AKT; [12]
  AKT activation: 2.1 fold
AKT; [13]
  pattern of AKT activity over time: rapidly induced for 5 to 10 minutes
[10]
  cell proliferation of dermal papilla cells (scratch): promoted cell proliferation
